Results taken from publication PMC10114720.

Experiments:
[1] = neutral chemical: log K is the mean of log D over all measurements at the three pH values (D shown independent of pH, paired t-test); sd is the table's stddev. PDMS sheets cleaned by Soxhlet with ethyl acetate; batch shaking method with a mixture of all chemicals at several PDMS-mass to water-volume ratios and spiked levels; vials shaken on an orbital shaker at room temperature in the dark, sampled at two equilibration times; PDMS extracts and water quantified by LC-HRMS (Orbitrap); D from the slope of C_PDMS on C_w or their ratio; settings: PDMS (polydimethylsiloxane silicone sheet); phosphate buffer at three target pH values (the paper's methods)
[2] = PDMS sheets cleaned by Soxhlet with ethyl acetate; batch shaking method with a mixture of all chemicals at several PDMS-mass to water-volume ratios and spiked levels; vials shaken on an orbital shaker at room temperature in the dark, sampled at two equilibration times; PDMS extracts and water quantified by LC-HRMS (Orbitrap); D from the slope of C_PDMS on C_w or their ratio; value is the mean over that pH's experiments (individual experiments in the SI's concentrations table), sd is the table's stdev; settings: PDMS (polydimethylsiloxane silicone sheet), phosphate buffer at three target pH values (the paper's methods)
[3] = monoprotic acid or base: log K of the neutral species extrapolated from the linear regression of D on the neutral fraction (from pKa and pH; the paper's eq. for monoprotic IOCs), the slope giving K of the neutral species; replicates column holds the table's 95% confidence limits. PDMS sheets cleaned by Soxhlet with ethyl acetate; batch shaking method with a mixture of all chemicals at several PDMS-mass to water-volume ratios and spiked levels; vials shaken on an orbital shaker at room temperature in the dark, sampled at two equilibration times; PDMS extracts and water quantified by LC-HRMS (Orbitrap); D from the slope of C_PDMS on C_w or their ratio; settings: PDMS (polydimethylsiloxane silicone sheet); phosphate buffer at three target pH values (the paper's methods)

SMILES	log K PDMS/w (neutral species) [1]	log D PDMS/w (apparent distribution ratio at the stated pH) ([2]; pH 3)	log D PDMS/w (apparent distribution ratio at the stated pH) ([2]; pH 7.4)	log D PDMS/w (apparent distribution ratio at the stated pH) ([2]; pH 11.5)	log K PDMS/w (neutral species) [3]
CCCN(CCOc1c(Cl)cc(Cl)cc1Cl)C(=O)NC=O	2.487 log units; D and K as the pape	2.492 log units; D and K as the pape	2.482 log units; D and K as the pape		
CCCCCCCCCCCC(=O)N(CCO)CCO	2.753 log units; D and K as the pape	2.742 log units; D and K as the pape	2.767 log units; D and K as the pape	2.749 log units; D and K as the pape	
CC=CC(=O)N(CC)c1ccccc1C (mixture of isomers)	2.056 log units; D and K as the pape	2.104 log units; D and K as the pape	2.038 log units; D and K as the pape	2.025 log units; D and K as the pape	
CNC(=O)/C(=N/OC)c1ccccc1COc1cc(C)ccc1C	2.396 log units; D and K as the pape	2.432 log units; D and K as the pape	2.361 log units; D and K as the pape	2.397 log units; D and K as the pape	
CC(C)(C)Nc1nc(N)nc(Cl)n1	1.296 log units; D and K as the pape	1.314 log units; D and K as the pape	1.264 log units; D and K as the pape	1.309 log units; D and K as the pape	
CC(C)(C)NC(=O)[C@H]1CC[C@H]2[C@@H]3CC[C@H]4NC(=O)C=C[C@]4(C)[C@H]3CC[C@]12C	2.638 log units; D and K as the pape	2.64 log units; D and K as the pape	2.691 log units; D and K as the pape	2.582 log units; D and K as the pape	
Cc1ccc(C=C2C(=O)C3(C)CCC2C3(C)C)cc1 (centres unmarked)	3.848 log units; D and K as the pape	3.9 log units; D and K as the pape	3.912 log units; D and K as the pape	3.742 log units; D and K as the pape	
O=C1CC2(CCCCC2)CN1	1.277 log units; D and K as the pape	1.311 log units; D and K as the pape	1.249 log units; D and K as the pape	1.271 log units; D and K as the pape	
CCNc1nc(N)nc(Cl)n1	0.1961 log units; D and K as the pape	0.21 log units; D and K as the pape	0.2883 log units; D and K as the pape	0.09 log units; D and K as the pape	
NC(=O)Nc1ccc(Cl)c(Cl)c1	0.6359 log units; D and K as the pape	0.5975 log units; D and K as the pape	0.6543 log units; D and K as the pape	0.6515 log units; D and K as the pape	
CN(C)C(=O)Nc1ccc(Cl)c(Cl)c1	1.409 log units; D and K as the pape	1.406 log units; D and K as the pape	1.371 log units; D and K as the pape	1.462 log units; D and K as the pape	
N#Cc1nn(-c2c(Cl)cc(C(F)(F)F)cc2Cl)c(N)c1SC(F)(F)F	2.436 log units; D and K as the pape	2.477 log units; D and K as the pape	2.459 log units; D and K as the pape	2.375 log units; D and K as the pape	
CC(C)OC(=O)C(C)(C)Oc1ccc(C(=O)c2ccc(Cl)cc2)cc1	4.415 log units; D and K as the pape	4.526 log units; D and K as the pape	4.273 log units; D and K as the pape	4.425 log units; D and K as the pape	
CCN(CC)C(=O)c1cccc(C)c1	1.611 log units; D and K as the pape	1.611 log units; D and K as the pape	1.592 log units; D and K as the pape	1.633 log units; D and K as the pape	
O=C1NCCN1Cc1ccc(Cl)nc1	1.372 log units; D and K as the pape		1.277 log units; D and K as the pape	1.451 log units; D and K as the pape	
CN(C)C(=O)Nc1ccccc1	0.4555 log units; D and K as the pape	0.45 log units; D and K as the pape	0.473 log units; D and K as the pape	0.443 log units; D and K as the pape	
CC(C)(C#N)c1cc(Cn2cncn2)cc(C(C)(C)C#N)c1	2.022 log units; D and K as the pape	2.047 log units; D and K as the pape	1.994 log units; D and K as the pape	2.025 log units; D and K as the pape	
CC(C)Nc1nc(N)nc(Cl)n1	0.4139 log units; D and K as the pape	0.418 log units; D and K as the pape	0.4125 log units; D and K as the pape	0.411 log units; D and K as the pape	
Cc1cccc(C)c1N(Cn1cccn1)C(=O)CS(C)=O (centres unmarked)	0.5949 log units; D and K as the pape	0.5745 log units; D and K as the pape	0.5892 log units; D and K as the pape	0.6192 log units; D and K as the pape	
O=S(=O)(c1ccc(Cl)cc1)c1ccc(Cl)cc1	2.563 log units; D and K as the pape	2.579 log units; D and K as the pape	2.592 log units; D and K as the pape	2.517 log units; D and K as the pape	
CCC(C(N)=O)(C(N)=O)c1ccccc1	-0.5565 log units; D and K as the pape	-0.586 log units; D and K as the pape	-0.585 log units; D and K as the pape	-0.5033 log units; D and K as the pape	
N#CSCSc1nc2ccccc2s1	1.857 log units; D and K as the pape	1.914 log units; D and K as the pape	1.821 log units; D and K as the pape		1.892 log units; D and K as the pape
COC(=O)C(c1ccccc1Cl)N1CCc2sccc2C1 (centres unmarked)	0.9169 log units; D and K as the pape	1.25 log units; D and K as the pape	-0.5267 log units; D and K as the pape		
CCCCCCCCn1sccc1=O	2.956 log units; D and K as the pape	3.047 log units; D and K as the pape	2.926 log units; D and K as the pape	2.893 log units; D and K as the pape	
O=P(c1ccccc1)(c1ccccc1)c1ccccc1	2.562 log units; D and K as the pape	2.588 log units; D and K as the pape	2.511 log units; D and K as the pape	2.589 log units; D and K as the pape	
COCCOCCOCCOCCOC	0.442 log units; D and K as the pape	0.372 log units; D and K as the pape	0.424 log units; D and K as the pape	0.53 log units; D and K as the pape	
